Data taken from the NIST ThermoML archive (doi:10.1016/j.jct.2013.02.004).
± gives the expanded uncertainty stated by the source.

Test: activity coefficient (dimensionless); of the first substance listed, at infinite dilution; xn = mol fraction of the nth substance listed
Conditions: 101 kPa, Liquid, Chromatography, x1 = 0

activity coefficient (308.15 K)	activity coefficient (318.15 K)	activity coefficient (328.15 K)	activity coefficient (338.15 K)	activity coefficient (348.15 K)	activity coefficient (358.15 K)	activity coefficient (368.15 K)	SMILES
79.7 ± 5.5	73.2 ± 5	68.2 ± 4.7	62.5 ± 4.3	59 ± 4	54.5 ± 3.7	51.3 ± 3.5	CCCCCCCCC [nonane] + CCCCCC[n+]1ccc2ccccc2c1.N#C[S-]
64.1 ± 4.4	58 ± 4	53.3 ± 3.7	48.3 ± 3.3	45.7 ± 3.1	42.1 ± 2.9	38.6 ± 2.6	CCCCCCCC [octane] + CCCCCC[n+]1ccc2ccccc2c1.N#C[S-]
		2.1 ± 0.14	2.11 ± 0.14	2.12 ± 0.14	2.12 ± 0.14	2.13 ± 0.14	CCCC(C)=O [pentan-2-one] + CCCCCC[n+]1ccc2ccccc2c1.N#C[S-]
		2.1 ± 0.14	2.11 ± 0.14	2.13 ± 0.14	2.15 ± 0.15	2.15 ± 0.15	CCC(=O)CC [pentan-3-one] + CCCCCC[n+]1ccc2ccccc2c1.N#C[S-]
		0.693 ± 0.047	0.681 ± 0.046	0.671 ± 0.045	0.664 ± 0.045	0.653 ± 0.045	CCCO [propan-1-ol] + CCCCCC[n+]1ccc2ccccc2c1.N#C[S-]

The next lines start with the compound.

SMILES	activity coefficient (308.15 K)	activity coefficient (318.15 K)	activity coefficient (328.15 K)	activity coefficient (338.15 K)	activity coefficient (348.15 K)	activity coefficient (358.15 K)	activity coefficient (368.15 K)
C=CCCCCCC [oct-1-ene] + CCCCCC[n+]1ccc2ccccc2c1.N#C[S-]	30.2 ± 2.1	28.5 ± 1.9	27.1 ± 1.9	25.6 ± 1.8	24.4 ± 1.7	23.2 ± 1.6	22.2 ± 1.5
c1ccncc1 [pyridine] + CCCCCC[n+]1ccc2ccccc2c1.N#C[S-]			0.703 ± 0.047	0.713 ± 0.048	0.722 ± 0.048	0.729 ± 0.048	0.745 ± 0.049
C1CCOC1 [tetrahydrofuran] + CCCCCC[n+]1ccc2ccccc2c1.N#C[S-]			1.46 ± 0.1	1.47 ± 0.1	1.48 ± 0.1	1.48 ± 0.1	1.5 ± 0.1
c1ccsc1 [thiophene] + CCCCCC[n+]1ccc2ccccc2c1.N#C[S-]			0.921 ± 0.058	0.943 ± 0.059	0.963 ± 0.061	0.98 ± 0.06	0.998 ± 0.062
Cc1ccccc1 [toluene] + CCCCCC[n+]1ccc2ccccc2c1.N#C[S-]			2.05 ± 0.14	2.07 ± 0.14	2.08 ± 0.14	2.1 ± 0.14	2.11 ± 0.14
O [water] + CCCCCC[n+]1ccc2ccccc2c1.N#C[S-]			0.401 ± 0.034	0.406 ± 0.034	0.41 ± 0.03	0.399 ± 0.034	0.418 ± 0.035
